Experimental data: patent US11236046B2, “Substituted heterocyclic sulfonamide compounds useful as TRPA1 modulators” (Genentech, Inc., priority 2013, dated 2022)

Assay: in vivo rat pharmacokinetic (PK) studies, plasma clearance
Conditions: plasma, read-out: Rat PK Clp

clearance [mL/min/kg] | Compound
98 | O=C(NCc1cc(-c2ccc(C(F)(F)F)nc2)ncn1)[C@@H]1CCCN1S(=O)(=O)c1ccc(F)cc1 [(2S)-1-(4-fluorophenyl)sulfonyl-N-[[6-[6-(trifluoromethyl)-3-pyridyl]pyrimidin-4-yl]methyl]pyrrolidine-2-carboxamide]
30 | O=C(NCc1cc(-c2ccc(C(F)(F)F)nc2)ncn1)[C@@H]1CC(F)(F)CN1S(=O)(=O)c1ccc(F)cc1 [(2S)-4,4-difluoro-1-(4-fluorophenyl)sulfonyl-N-[[6-[6-(trifluoromethyl)-3-pyridyl]pyrimidin-4-yl]methyl]pyrrolidine-2-carboxamide]
5.9 | O=C(NCc1cc(-c2cnc(C(F)(F)F)nc2)c(F)cn1)[C@@H]1C[C@@H](F)CN1S(=O)(=O)c1ccc(F)cc1 [(2S,4R)-4-fluoro-1-(4-fluorophenyl)sulfonyl-N-[[5-fluoro-4-[2-(trifluoromethyl)pyrimidin-5-yl]-2-pyridyl]methyl]pyrrolidine-2-carboxamide]
13.2 | O=C(NCc1cc(-c2ccc(OC(F)F)cc2)ncn1)[C@@H]1C[C@@H](F)CN1S(=O)(=O)c1ccc(F)cc1 [(2S,4R)-N-[[6-[4-(difluoromethoxy)phenyl]pyrimidin-4-yl]methyl]-4-fluoro-1-(4-fluorophenyl)sulfonyl-pyrrolidine-2-carboxamide]
7.6 | N#C[C@@H]1C[C@@H](C(=O)NCc2cc(-c3ccc(C(F)(F)F)cc3)ncn2)N(S(=O)(=O)c2ccc(F)cc2)C1 [(2S,4R)-4-cyano-1-(4-fluorophenyl)sulfonyl-N-[[6-[4-(trifluoromethyl)phenyl]pyrimidin-4-yl]methyl]pyrrolidine-2-carboxamide]

Compound | clearance [mL/min/kg]
O=C(NCc1cc(-c2ccc(C(F)(F)F)nc2)ncn1)[C@@H]1[C@@H](F)CCN1S(=O)(=O)c1ccc(F)cc1 [(2R,3S)-3-fluoro-1-(4-fluorophenyl)sulfonyl-N-[[6-[6-(trifluoromethyl)-3-pyridyl]pyrimidin-4-yl]methyl]pyrrolidine-2-carboxamide] | 101
